In patent US5952310A, “Glycopeptide hexapeptides” (priority 1998, dated 1999):

How the values were obtained:
[1] = tested on: Enterococcus faecium and faecalis (SENSITIVE); assay: MIC, standard broth micro-dilution assay, sensitive enterococci; type: cell-based; conditions: geometric mean of 4-6 isolates
[2] = tested on: Staphylococcus aureus 489; assay: MIC, standard broth micro-dilution assay, SA489; type: cell-based
[3] = tested on: Staphylococcus aureus 447; assay: MIC, standard broth micro-dilution assay, SA447; type: cell-based
[4] = tested on: Staphylococcus haemolyticus 105; assay: MIC, standard broth micro-dilution assay, SH 105; type: cell-based
[5] = tested on: Staphylococcus haemolyticus 415; assay: MIC, standard broth micro-dilution assay, SH 415; type: cell-based
[6] = tested on: Streptococcus pyogenes C203; assay: MIC, standard broth micro-dilution assay, SPY C203; type: cell-based
[7] = tested on: Enterococcus faecium and faecalis (RESISTANT); conditions: geometric mean of 4-6 isolates
Method: (§1) The minimal inhibitory concentrations (MICs) were determined using a standard broth micro-dilution assay.

[8] = tested on: Staphylococcus aureus 446
Method: as §1

[9] = tested on: Streptococcus pneumoniae P1
Method: as §1

[10] = tested on: Staphylococcus epidermidis 270

| Compound | Minimal Inhibitory Concentration (MIC) Sensitive [1] | Minimal Inhibitory Concentration (MIC) SA 489 [2] | Minimal Inhibitory Concentration (MIC) SA 447 [3] | Minimal Inhibitory Concentration (MIC) SH 105 [4] | Minimal Inhibitory Concentration (MIC) SH 415 [5] | Minimal Inhibitory Concentration (MIC) SPY C203 [6] | Minimal Inhibitory Concentration (MIC) Resistant [7] | Minimal Inhibitory Concentration (MIC) SA 446 [8] | Minimal Inhibitory Concentration (MIC) SPN P1 [9] | Minimal Inhibitory Concentration (MIC) SE 270 [10] |
| --- | --- | --- | --- | --- | --- | --- | --- | --- | --- | --- |
| CCCCc1ccc(CNC2(C)CC(OC3C(Oc4c5cc6cc4Oc4ccc(cc4Cl)C(OC4CC(C)(N)C(O)C(C)O4)C4NC(=O)C(NC(=O)C6NC(=O)C(CC(N)=O)NC(=O)C(N)C(O)c6ccc(c(Cl)c6)O5)c5ccc(O)c(c5)-c5c(O)cc(O)cc5C(C(=O)O)NC4=O)OC(CO)C(O)C3O)OC(C)C2O)cc1 (stereo not drawn) [Example 5, N^DISACC -(p-n-BUTYLBENZYL)-DESLEUCYL-A82846B] | 9.2 | 1 | 2 | 1 | 2 | 0.125 | 108 | 1 | 0.25 | 1 |
| CC1OC(OC2c3ccc(c(Cl)c3)Oc3cc4cc(c3OC3OC(CO)C(O)C(O)C3OC3CC(C)(N)C(O)C(C)O3)Oc3ccc(cc3Cl)C(O)C(N)C(=O)NC(CC(N)=O)C(=O)NC4C(=O)NC3C(=O)NC2C(=O)NC(C(=O)O)c2cc(O)cc(O)c2-c2cc3ccc2O)CC(C)(N)C1O (stereo not drawn) [Example 1, DESLEUCYL-A82846B] | > 128 | 32 | 64 | > 64 | > 64 | 4 | > 128 | 64 | – | 64 |
| CC1OC(OC2c3ccc(c(Cl)c3)Oc3cc4cc(c3OC3OC(CO)C(O)C(O)C3OC3CC(C)(NCc5ccc(Oc6ccccc6)cc5)C(O)C(C)O3)Oc3ccc(cc3Cl)C(O)C(N)C(=O)NC(CC(N)=O)C(=O)NC4C(=O)NC3C(=O)NC2C(=O)NC(C(=O)O)c2cc(O)cc(O)c2-c2cc3ccc2O)CC(C)(N)C1O (stereo not drawn) [Example 3, N^DISACC -(p-PHENOXYBENZYL)-DESLEUCYL-A82846B] | 14 | 1 | 1 | 2 | 1 | ≤ 0.06 | 45 | 2 | ≤ .06 | 0.5 |
| CC1OC(OC2c3ccc(c(Cl)c3)Oc3cc4cc(c3OC3OC(CO)C(O)C(O)C3OC3CC(C)(NCc5ccc(Cl)cc5)C(O)C(C)O3)Oc3ccc(cc3Cl)C(O)C(N)C(=O)NC(CC(N)=O)C(=O)NC4C(=O)NC3C(=O)NC2C(=O)NC(C(=O)O)c2cc(O)cc(O)c2-c2cc3ccc2O)CC(C)(N)C1O (stereo not drawn) [Example 2, N^DISACC -(p-CHLOROBENZYL)-DESLEUCYL-A82846B] | 5.2 | 0.5 | 2 | 2 | 4 | ≤ 0.06 | > 81 | 4 | – | 2 |
| CC1OC(OC2c3ccc(c(Cl)c3)Oc3cc4cc(c3OC3OC(CO)C(O)C(O)C3O)Oc3ccc(cc3Cl)C(O)C(N)C(=O)NC(CC(N)=O)C(=O)NC4C(=O)NC3C(=O)NC2C(=O)NC(C(=O)O)c2cc(O)cc(O)c2-c2cc3ccc2O)CC(C)(N)C1O (stereo not drawn) [Example 7, N^DISACC -DES-EPIVANCOAMINYL-DESLEUCYL-A82846B] | 56 | 8 | 64 | 64 | > 64 | 4 | > 128 | 32 | 2 | > 64 |
| CC1OC(OC2c3ccc(c(Cl)c3)Oc3cc4cc(c3OC3OC(CO)C(O)C(O)C3OC3CC(C)(NCc5ccc(-c6ccccc6)cc5)C(O)C(C)O3)Oc3ccc(cc3Cl)C(O)C(N)C(=O)NC(CC(N)=O)C(=O)NC4C(=O)NC3C(=O)NC2C(=O)NC(C(=O)O)c2cc(O)cc(O)c2-c2cc3ccc2O)CC(C)(N)C1O (stereo not drawn) [Example 4, N^DISACC -(p-PHENYLBENZYL)-DESLEUCYL-A82846B] | 3.4 | 0.25 | 1 | 1 | 1 | ≤ 0.06 | 16 | 2 | 0.125 | 1 |
| CC1OC(OC2c3ccc(c(Cl)c3)Oc3cc4cc(c3OC3OC(CO)C(O)C(O)C3OC3CC(C)(NCc5ccc(-c6ccc(Cl)cc6)cc5)C(O)C(C)O3)Oc3ccc(cc3Cl)C(O)C(N)C(=O)NC(CC(N)=O)C(=O)NC4C(=O)NC3C(=O)NC2C(=O)NC(C(=O)O)c2cc(O)cc(O)c2-c2cc3ccc2O)CC(C)(N)C1O (stereo not drawn) [Example 6, N^DISACC -(p-(p-CHLOROPHENYL)-BENZYL)DESLEUCYL-A82846B] | 2.6 | 2 | 1 | 0.5 | 1 | ≤ .06 | 6.7 | 2 | 0.25 | 0.5 |
| CC1OC(OC2c3ccc(c(Cl)c3)Oc3cc4cc(c3OC3OC(CO)C(O)C(O)C3OC3CC(C)(NCCCCCCCCc5ccccc5)C(O)C(C)O3)Oc3ccc(cc3Cl)C(O)C(N)C(=O)NC(CC(N)=O)C(=O)NC4C(=O)NC3C(=O)NC2C(=O)NC(C(=O)O)c2cc(O)cc(O)c2-c2cc3ccc2O)CC(C)(N)C1O (stereo not drawn) [Example 8, N^DISACC -(8-PHENYL-n-OCTYL)DESLEUCYL-A82846B] | 0.76 | 1 | 2 | 0.25 | 2 | 0.125 | 5.7 | 4 | 0.125 | 1 |
